From patent US11419869B2, “Dosage forms and regimens for amino acid compounds” (Pliant Therapeutics, Inc., priority 2019, dated 2022)

How the values were obtained:
[1] = tested on: normal bronchial epithelial cell adhesion to LAP; test: normal bronchial epithelial cell adhesion to LAP (FIG. 3A); type: cell-based
[2] = tested on: IPF-derived lung fibroblasts; test: cell adhesion in IPF-derived lung fibroblasts (FIG. 3B); type: cell-based
COL1A1 expression [3] = test: COL1A1 expression in precision cut lung slices (PCLS) from human IPF lung tissue; conditions: FIG. 6E, 200 pM to 1 μM
Mice (C57BL/6) = test: Murine bleomycin model (Example B7); type: in vivo
Procedure: Mice (C57BL/6) were divided into healthy (n=15), vehicle-treated (n=15), and test article-treated (n=15 per dose) groups. Mice in the vehicle and test article-treated groups were administered 3 U/kg of bleomycin (Teva Pharmaceuticals; North Wales, Pa.) via oropharyngeal aspiration while under anesthesia on day 0. Healthy animals were administered water in a similar fashion. Starting on day 7, mice in the control group were administered PBS vehicle, 130 μL, by oral gavage, BID for 14 days. Also starting on day 7, mice in the test group were administered compound 5 in PBS by oral gavage, BID for 14 days, at relative dosages of 1×, 2.5× and 5×. […] From day 14 through day 21, 9 of the 15 mice were administered ^2H2O for labeling. All mice were sacrificed on day 21 and tissues were collected. Samples were prepared for analysis either directly from lung tissue, or by bronchoalveolar lavage, which washes out the bronchiolar and alveolar space with saline to produce a bronchoalveolar lavage fluid (BALF) in which 80-90% of cells are alveolar macrophages.
FIG. 4C is a graph showing that compared to the healthy mice, lung tissue in the vehicle-treated mice experienced a substantial increase in SMAD3 phosphorylation, which is a measure of TGF-β signaling-related kinase activity. […] FIG. 4D is a graph showing that compared to the healthy mice, lung tissue in the vehicle-treated mice experienced a substantial accumulation of new collagen as evidenced by the percentage of lung collagen containing ^2H-labeled hydroxyproline.
FIGS. 4F, 4G, and 4H show high resolution second harmonic generation images of fibrillar collagen (collagen type I and III) taken from formalin-fixed paraffin embedded lung tissue sections from a healthy mouse lung (4F), a vehicle-treated mouse lung (4G) and a test-article treated mouse lung (4H; 500 mg/kg BID). Color scale is indicative of collagen fiber density (red=most dense; blue=least dense).
FIG. 4I is a graph showing the percent total collagen area in the second harmonic generation mouse lung images. Large structural areas of collagen found similarly in healthy and fibrotic tissues (dense collagen fibers surrounding airways were excluded from this analysis to focus on interstitial fibrotic collagen). […] The 1×, 2.5×, and 5× dosages were at the same absolute values in mg/kg as in Example B7.
The data for FIGS. 4J and 4K, was obtained 14 days after bleomycin challenge in mice were treated with compound 5 at 2.5× dose (PO, BID for 1.5 days).

lung Col1a1 expression = test: Precision cut lung slices, mice under chronic bleomycin exposure (Example B9); type: cell-based; conditions: 7 days culture, normalized to DMSO, FIG. 5B
Procedure: Mice (C57BL/6) were administered 3 U/kg of bleomycin (Teva Pharmaceuticals; North Wales, Pa.) on Day 0 and 1 U/kg of bleomycin on days 14, 28, 42 and 56 via oropharyngeal aspiration while under anesthesia. At day 70, 14 days after the final bleomycin insult, precision cut lung slices were obtained. Following euthanization, 2% low gelling temp agarose was injected into the mouse lungs via the trachea. […] The lobes were then subjected to precision slicing to obtain samples for culture using a microtome (Compresstome VF-300-0Z, Precisionary; Greenville, N.C.). Individual slices were distributed in a multiwell culture plate and cultured for 7 days under control (DMSO) and test compound conditions. The viability of the slices over the course of culturing was confirmed by WST-1 assay of mitochondrial activity.
During the culture period, slices in the control group were treated with DMSO and slices in the test group were treated with a DMSO solution of one of: the selective antibody αvβ6 inhibitor 3G9; the αvβ1-selective small molecule inhibitor; a combination of the selective antibody αvβ6 inhibitor 3G9 and the αvβ1-selective small molecule inhibitor; compound 5; and the small molecule ALK5 inhibitor. The selective αvβ1 and αvβ6 integrin inhibitors were analyzed at ≥their respective IC90 concentrations for inhibition of TGF-beta activation. […]

COL1A1 expression [4] = test: Precision cut lung slices from human IPF explants, COL1A1 expression (Example B11); type: cell-based
Excerpt: Explanted lung tissue was obtained from human IPF subjects and inflated with agarose as described in the preceding examples. Biopsy cores were obtained from the agarose-inflated lung tissue. The biopsy cores were subjected to precision slicing to obtain several hundred μm thick. Individual slices were distributed in a multiwell culture plate and cultured for […] under control (DMSO) and test compound conditions. The viability of the slices over the course of culturing was confirmed by WST-1 assay of mitochondrial activity.
PCLS from 5-7 idopathic pulmonary fibrosis (IPF) lung tissue samples were cultured for seven days with one of: DMSO; Compound 5 at 200 nM; nintedanib at 75 nM; pirfenidone at 50 μm; a combination of Compound 5 at 200 nM and nintedanib at 75 nM; a combination of Compound 5 at 200 nM and pirfenidone at […]; or an Alk5 inhibitor at 1 μm. […] FIG. 6D is a bar graph showing relative expression of COL1A1 in precision cut lung slices (PCLS) from idopathic pulmonary fibrosis (IPF) lung tissue upon exposure to Comopund 5, clinical standard of care compounds nintedanib (Nin) and pirfenidone (Pirf), and an ALK5 inhibitor, all versus DMSO control.
PCLS from a single IPF lung tissue sample were cultured for seven days with Compound 5 at concentrations of […], 2 nM, 60 nM, 200 nM, and 1 μM, along with 0.1% DMSO control and an Alk5 inhibitor at 1 μM. […] COL1A1 expression is also graphed for the PCLS in the presence of 0.1% DMSO control, and an Alk5 inhibitor at 1 μM.

pSMAD2/SMAD2 ratio = test: Precision cut lung slices from human IPF lung tissue, pSMAD2/SMAD2 ratio; type: cell-based; conditions: PCLS from 3 IPF lung tissues, seven days, Compound 5 at 1.82 μM, FIG. 6F
Procedure: PCLS from 3 IPF lung tissues were cultured for seven days with Compound 5. […] The ratio of pSMAD2/SMAD2 is also graphed for the PCLS in the presence of 0.1% DMSO control, and an Alk5 inhibitor at 1 μM

SMILES: COCCN(CCCCc1ccc2c(n1)NCCC2)CC[C@H](Nc1ncnc2ccccc12)C(=O)O [Compound 5, (S)-4-((2-methoxyethyl) (4-(5,6,7,8-tetrahydro-1,8-naphthyridin-2-yl)butyl)amino)-2-(quinazolin-4-ylamino) butanoic acid]
- normal bronchial epithelial cell adhesion to LAP [1]: substantially inhibited
- cell adhesion in the IPF-derived lung fibroblasts [2]: substantially inhibited
- COL1A1 expression (COL1A1 expression [3]): dose dependent reduction
- pSMAD3 levels in lung and BALF cells vs. plasma drug exposure (Mice (C57BL/6); 14 days after bleomycin, […] dose PO BID for 1.5 days, FIGS. 4J, 4K): close inverse relationship
- percent total collagen area in second harmonic generation lung images (Mice (C57BL/6); bleomycin mice, 1× (p<0.05), […] (p<0.01), 5× (p<0.0001 vs vehicle), FIG. 4I): substantial, statistically significant dose-dependent reduction
- accumulated new collagen (percentage of lung collagen containing 2H-labeled hydroxyproline) (Mice (C57BL/6); bleomycin mice, 1× and 5× (p<0.01 vs vehicle), FIG. 4D): dose-dependent reduction
- total pulmonary collagen, as measured by μg of hydroxyproline (Mice (C57BL/6); bleomycin mice, 1×, […], 5× (p<0.05 vs vehicle), FIG. 4E): reduction in total pulmonary collagen
- SMAD3 phosphorylation in lung tissue (Mice (C57BL/6); bleomycin mice, oral gavage BID 14 days at 1×, […], 5×, vs vehicle, FIG. 4C): substantial, statistically significant dose-dependent reductions
- pSMAD3 levels in the lung (Mice (C57BL/6); bleomycin mice, time- and dose-dependent inhibition): approximately 50 % of the untreated levels
- lung Col1a1 expression (lung Col1a1 expression): decreased lung Col1a1 expression substantially
- COL1A1 expression, dose dependence (COL1A1 expression [4]; PCLS from a single IPF lung sample, seven days, 200 pM to 1 μM, FIG. 6E): dose dependent reduction
- reduction in COL1A1 expression (COL1A1 expression [4]; PCLS from a single IPF lung sample, seven days, at ≥2 nM, FIG. 6E): ≥ 47 % reduction
- lung Col1a1 expression (COL1A1 expression [4]; human IPF slices, 3 days, 3G9 ≥400 ng/mL, compound 5 179 nM, ALK5 inhibitor 1 μM, FIG. 6C): substantial, statistically significant (p<0.01 vs vehicle) decrease
- reduction of pSMAD2/SMAD2 ratio (pSMAD2/SMAD2 ratio): approximately 50%
